Drawing on PubChem BioAssay (NCI), this text covers GI50 and TGI for 30 molecules.

What all share (experiment): NCI tumour cell line growth inhibition, 48 h
The test system of assay [1] is T-47D breast.
Assay [2] has as its system DLD-1 colon.
Assay [3] has as its system DMS 114 small cell lung.
Assay [4] has as its system HOP-18 NSCLC.
The test system of assay [5] is KM20L2 colon.
For assay [6], the system named is LXFL 529 NSCLC.
The subject of assay [7] is XF 498 CNS.
For assay [8], the system named is MDA-N.
Assay [9] relates to RXF-631 renal.

The structures appear in SMILES notation.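 Protocol summary: plate cells (96-well), add compound at 5 concentrations, incubate 48 h, interpolate endpoints linearly. GI50 marks 50% less growth. TGI denotes the concentration required for complete inhibition of growth.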 Where only a bound is given, the exact number is not on record here.

`Cc1ncc(CCCN(C)C)cc1Nc1ncc2c(n1)-c1ccc(C(F)(F)F)cc1NC(=S)C2`: in [1], the GI50 is 0.814 µM and the TGI was 33.8 µM.

With `O=C1OC2CCCC[C@@H]2C2C[C@]34CCCCC3[C@@H](C(=O)O4)C12` (some centres undefined), the TGI in assay [2], in assay [3], in [4], in assay [5], in assay [6] and in [7] was over 100 µM throughout.

Regarding `CCn1c(-c2ccc(OC(C)=O)cc2)c(C)c2cc(OC(C)=O)ccc21`, the TGI in assay [8] is 77.9 µM; in [1], 60.5 µM.

As to `CCN(CC)c1ccc(N=Nc2ccc(-c3nc4ccc[n+](C)c4s3)cc2)cc1`, the TGI in assay [4] amounted to 31.3 µM; in assay [5], 19.9 µM; in assay [6], 17.9 µM.

On to `Br[C](Br)(Br)[Hg][c]1ccccc1`, for which, in assay [8], the GI50 was 17.6 µM and the TGI was 38.7 µM. In assay [1], the GI50 is 9.56 µM and the TGI was determined as 43.7 µM.

On to `CC(C)C[C@H](NC(=O)/C=C/Cn1ccc2ccccc2c1=O)B(O)O`, for which, in [1], the GI50 is 2.68 µM and the TGI amounted to 15.3 µM.

As for `COc1cc2[nH]c(C(=O)c3cc(OC)c(OC)c(OC)c3)c(N)c2cc1C#CC1CC1`, in assay [1], the GI50 is 3.02 µM and the TGI is over 100 µM.

Consider `O=c1c2cc(Br)cc(Br)c2nc(CCCl)n1CCO`, for which the TGI in assay [2], in assay [3], in [5], in assay [6], in assay [9] and in [7] was over 100 µM each time.

For the molecule `C/C(CC(=O)NCCc1ccccc1)=N\NC(=O)C[n+]1ccccc1`, the TGI in [2], in assay [3], in [5], in assay [6], in assay [9] and in assay [7] was over 100 µM each time.

For the molecule `O=C1/C(=C/c2cccc([N+](=O)[O-])c2)COc2ccc(Br)cc21`, the TGI in assay [2], in [3], in assay [4], in [5], in assay [6] and in assay [7] was over 100 µM throughout.

`COc1cc(C(=O)c2cc(C)c3[nH]c4ccc(C)cc4c3c2C)cc(OC)c1OC`: in [1], the GI50 was 0.287 µM and the TGI was over 100 µM.

Molecule `O=C(O)C1C(Br)(c2ccccc2)C1(Br)c1ccccc1` (centres undefined) registered a TGI in [1] of over 100 µM.

For `ClCC[N+]12CC[N+](CCCl)(CC1)C2`, the TGI in [8] and in [1] was over 100 µM each time.

With `COc1ccc(/C=C/C(=O)C(CC2CCC2)C(=O)/C=C/c2ccc(OC)c(OC)c2)cc1OC`, in assay [1], the GI50 was 1.39 µM and the TGI came to 4.44 µM.

Consider `CC1=C(O)C(=O)C=C2C1=CC=C1[C@@]2(C)CC[C@@]2(C)[C@@H]3C[C@](C)(C(=O)O)CC[C@]3(C)CC[C@]12C`, for which the figures for the TGI in assay [8] and in assay [1] were 0.075 µM and 0.0807 µM, respectively.

Turning to `NC(=O)NCc1c(C(N)=O)ncn1Cc1ccccc1`, the TGI in [2], in [3], in assay [4], in assay [5], in assay [6] and in [7] was over 100 µM in each case.

For the molecule `Cc1ccc(-c2nc3ccc(Cl)cc3c(=O)n2N2C(=O)CSC2c2ccccc2Cl)cc1` (centres undefined), in assay [1], the GI50 is 3.82 µM and the TGI is over 100 µM.

Regarding `O=C1Nc2ccc(F)cc2/C1=C/c1ccc[nH]1`, in assay [1], the GI50 was 1.03 µM and the TGI was over 14.2 µM.

For `CC(=O)N[C@H]1CSSC[C@@H](C(N)=O)NC(=O)[C@H](C(C)C)NC(=O)[C@H](C)NC(=O)[C@H](Cc2cnc[nH]2)NC1=O`, in assay [1], the GI50 was over 100 µM and the TGI is over 100 µM.

Consider `CSC(C1c2ccccc2N(c2ccc(C)cc2)c2[nH]c(=O)n(C)c(=O)c21)S(=O)(=O)c1ccc(C)cc1` (centres undefined), for which the TGI in assay [2], in assay [3], in assay [5], in assay [6] and in assay [7] was over 100 µM throughout.

Take `Cc1ccc2[nH]c(O)c(N=Nc3ccc(S(N)(=O)=O)cc3)c2c1`: in assay [1], the GI50 was 15.3 µM and the TGI was over 25 µM.

Turning to `COc1cccc2c(=O)c3c(sc12)c(N1CCNCC1)nc1ccccc13`, in assay [1], the GI50 is 1.9 µM and the TGI was found to be 4.57 µM.

`COc1cccc(C#Cc2ccccc2C#CCCCCO)c1`: in assay [1], the GI50 is 18.5 µM and the TGI was 43.1 µM.

Regarding `C[C@H](O)C(=O)N1CCC(CCn2c(Sc3cc4c(cc3Br)OCO4)nc3c(N)ncnc32)CC1`, in [1], the GI50 is 2.15 µM and the TGI is over 100 µM.

For the molecule `CCn1c(SCc2ccc(C)cc2)nnc1-c1nn(-c2ccc(Cl)cc2Cl)c(-c2ccc(Cl)cc2)c1C`, in assay [1], the GI50 is 0.428 µM and the TGI was 10.1 µM.

Regarding `CN(C)c1cc[c]([Sn]([c]2ccc(N(C)C)cc2)([c]2ccc(N(C)C)cc2)[c]2ccc(N(C)C)cc2)cc1`, the GI50 is 3.15 µM in assay [3], 8.77 µM in assay [4], 4.3 µM in assay [5] and 3.09 µM in [6]. The TGI in assay [3] came out at 13.8 µM; in [4] it was 32.9 µM; in [5], 14.8 µM; in assay [6] it was 12.9 µM.

In the case of `COc1c(CCl)cc(-c2cc(=O)c3ccccc3s2)cc1CCl`, the TGI in assay [8] was over 100 µM; in [1] it was 4.03 µM.

As for `Nc1ccn(C2CCC(CO)O2)c(=O)n1` (centres undefined), the TGI in [8] and in assay [1] was over 1000 µM throughout.

In assay [8], `C[C@]12CC[C@@H]3c4cc(OCC(F)(F)F)c(O)cc4/C(=N/O)C[C@H]3[C@@H]1CC[C@@H]2O` yielded a TGI of 1.06 µM.

In turn, `O=C1NC(=O)C(CC2CCCCCCCCCCC2=O)C(=O)N1` (centres undefined) yielded a TGI in assay [8] of over 100 µM.
